Laboratory results as given in patent US8952024B2, “Herbicidal pyrimidone derivatives” (E I du Pont de Nemours and Company, priority 2009, dated 2015).

Key:
Assay type in all cases: in vivo
[1] = tested on: Italian ryegrass (Lolium multiflorum); experiment: Test B pre-/postemergence plant response; details: for Ryegrass, Italian plant response rating (0 to 100 scale): 0 is no effect, 13 to 15 days
Summary of the method: (§1)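 Compound in solvent + surfactant applied pre-em (loam/sand) or post-em (plants 2–18 cm, peat medium); greenhouse hold 13–15 days; visual 0–100 control score.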

[2] = tested on: Surinam grass (Brachiaria decumbens); experiment: Test B pre-/postemergence plant response; details: for Surinam Grass plant response rating (0 to 100 scale): 0 is no effect, 13 to 15 days
Summary of the method: as §1

[3] = tested on: bermudagrass (Cynodon dactylon); experiment: Test B pre-/postemergence plant response; details: for Bermudagrass plant response rating (0 to 100 scale): 0 is no effect, 13 to 15 days
Summary of the method: as §1

[4] = tested on: blackgrass (Alopecurus myosuroides); experiment: Test B pre-/postemergence plant response; details: for Blackgrass plant response rating (0 to 100 scale): 0 is no effect, 13 to 15 days
Summary of the method: as §1

[5] = tested on: cocklebur (Xanthium strumarium); experiment: Test B pre-/postemergence plant response; details: for Cocklebur plant response rating (0 to 100 scale): 0 is no effect, 13 to 15 days
Summary of the method: as §1

[6] = tested on: corn (Zea mays); experiment: Test B pre-/postemergence plant response; details: for Corn plant response rating (0 to 100 scale): 0 is no effect, 13 to 15 days
Summary of the method: as §1

[7] = tested on: morningglory (Ipomoea coccinea); experiment: Test B pre-/postemergence plant response; details: for Morningglory plant response rating (0 to 100 scale): 0 is no effect, 13 to 15 days
Summary of the method: as §1

[8] = tested on: ragweed (common ragweed, Ambrosia elatior); experiment: Test B pre-/postemergence plant response; details: for Ragweed plant response rating (0 to 100 scale): 0 is no effect, 13 to 15 days
Summary of the method: as §1

[9] = tested on: soybean (Glycine max); experiment: Test B pre-/postemergence plant response; details: for Soybean plant response rating (0 to 100 scale): 62 g ai/ha, 0 is no effect, 13 to 15 days
Summary of the method: as §1

[10] = tested on: barnyardgrass (Echinochloa crus-galli); experiment: Test B flooded paddy test; details: for Plant response rating, Flood, Barnyardgrass: 250 g ai/ha, flooded paddy test, visual rating on 0 to 100 scale (0 no effect, 100 complete control) after 13 to 15 days; for Plant response rating, Barnyardgrass: Flood (flooded paddy test), 62 g ai/ha, scale of 0 to 100 where 0 is no effect and 100 is complete control, 13 to 15 days
Summary of the method: (§2)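 Seedlings reaching 2 leaves are flooded 3 cm deep; test material is delivered to that water, which stays at the same depth. Plants remain in a greenhouse 13–15 days and are then scored by eye versus controls from 0 to 100.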

[11] = tested on: ducksalad (Heteranthera limosa); experiment: Test B flooded paddy test; details: for Plant response rating, Flood, Ducksalad: 250 g ai/ha, flooded paddy test, visual rating on 0 to 100 scale (0 no effect, 100 complete control) after 13 to 15 days; for Plant response rating, Ducksalad: Flood (flooded paddy test), 62 g ai/ha, scale of 0 to 100 where 0 is no effect and 100 is complete control, 13 to 15 days
Summary of the method: as §2

[12] = tested on: rice (Oryza sativa); experiment: Test B flooded paddy test; details: for Plant response rating, Flood, Rice: 250 g ai/ha, flooded paddy test, visual rating on 0 to 100 scale (0 no effect, 100 complete control) after 13 to 15 days; for Plant response rating, Rice: Flood (flooded paddy test), 62 g ai/ha, scale of 0 to 100 where 0 is no effect and 100 is complete control, 13 to 15 days
Summary of the method: as §2

[13] = tested on: umbrella sedge (Cyperus difformis); experiment: Test B flooded paddy test; details: for Plant response rating, Flood, Sedge, Umbrella: 250 g ai/ha, flooded paddy test, visual rating on 0 to 100 scale (0 no effect, 100 complete control) after 13 to 15 days; for Plant response rating, Sedge, Umbrella: Flood (flooded paddy test), 62 g ai/ha, scale of 0 to 100 where 0 is no effect and 100 is complete control, 13 to 15 days
Summary of the method: as §2

[14] = 31 g ai/ha, postemergence, scale 0 to 100, 0 is no effect, 100 is complete control
[15] = 62 g ai/ha, postemergence, 100 is complete control
[16] = Postemergence, 125 g ai/ha, visual rating after 13 to 15 days, scale 0 (no effect) to 100 (complete control)
[17] = Postemergence, 250 g ai/ha, scale 0 to 100 (0 no effect, 100 complete control)
[18] = Preemergence, 31 g ai/ha, scale 0 to 100 (0 no effect, 100 complete control)
[19] = Preemergence, 62 g ai/ha, scale 0 to 100 (0 no effect, 100 complete control)
[20] = Preemergence, 125 g ai/ha, scale 0 to 100, 0 no effect, 100 complete control
[21] = 250 g ai/ha, Preemergence, 0 to 100 scale
[22] = postemergence, 100 is complete control
[23] = Preemergence, 250 g ai/ha, 0 to 100 scale

CCCc1ncc(C(=O)C2=C(O)CCCC2=O)c(=O)n1-c1ccccc1C [Compound 73]
60: Plant response rating, Ryegrass, Italian [1, 16] | Plant response rating, Cocklebur [5, 20] | Plant response rating, Ragweed [8, 19]
65: Plant response rating, Bermudagrass [3, 14] | Plant response rating, Cocklebur [5, 21] | Plant response rating, Cocklebur [5, 16]
85: Surinam Grass plant response rating (0 to 100 scale) [2, 15] | Plant response rating, Surinam Grass [2, 16] | Plant response rating, Surinam Grass [2, 17] | Plant response rating, Surinam Grass [2, 18] | Plant response rating, Corn [6, 17] | Plant response rating, Ragweed [8, 16] | Plant response rating, Ragweed [8, 17] | Soybean plant response rating (0 to 100 scale) [9, 22]
20: Plant response rating, Corn [6, 14]
95: Plant response rating, Morningglory [7, 17] | Plant response rating, Soybean [9, 17]
80: Plant response rating, Surinam Grass [2, 14] | Bermudagrass plant response rating (0 to 100 scale) [3, 15] | Plant response rating, Cocklebur [5, 17] | Corn plant response rating (0 to 100 scale) [6, 15] | Plant response rating, Corn [6, 16] | Ragweed plant response rating (0 to 100 scale) [8, 15] | Plant response rating, Soybean [9, 14]
10: Blackgrass plant response rating (0 to 100 scale) [4, 15] | Plant response rating, Blackgrass [4, 21] | Plant response rating, Blackgrass [4, 16] | Plant response rating, Corn [6, 21]
75: Plant response rating, Morningglory [7, 16] | Plant response rating, Ragweed [8, 14] | Plant response rating, Ragweed [8, 20]
50: Plant response rating, Bermudagrass [3, 18] | Morningglory plant response rating (0 to 100 scale) [7, 15]
90: Plant response rating, Bermudagrass [3, 16] | Plant response rating, Bermudagrass [3, 17] | Plant response rating, Soybean [9, 16]
0: Plant response rating, Ryegrass, Italian [1, 18] | Plant response rating, Ryegrass, Italian [1, 19] | Plant response rating, Ryegrass, Italian [1, 20] | Plant response rating, Blackgrass [4, 14] | Plant response rating, Blackgrass [4, 18] | Plant response rating, Blackgrass [4, 19] | Plant response rating, Blackgrass [4, 20] | Plant response rating, Cocklebur [5, 14] | Plant response rating, Cocklebur [5, 18] | Plant response rating, Cocklebur [5, 19] | Plant response rating, Corn [6, 18] | Plant response rating, Corn [6, 19] | Plant response rating, Corn [6, 20] | Plant response rating, Morningglory [7, 14] | Plant response rating, Morningglory [7, 18] | Plant response rating, Morningglory [7, 19] | Plant response rating, Flood, Barnyardgrass [10] | Plant response rating, Barnyardgrass [10] | Plant response rating, Flood, Ducksalad [11] | Plant response rating, Ducksalad [11] | Plant response rating, Flood, Rice [12] | Plant response rating, Rice [12] | Plant response rating, Flood, Sedge, Umbrella [13] | Plant response rating, Sedge, Umbrella [13]
98: Plant response rating, Bermudagrass [3, 19] | Plant response rating, Bermudagrass [3, 20]
100: Plant response rating, Surinam Grass [2, 19] | Plant response rating, Surinam Grass [2, 20] | Plant response rating, Bermudagrass [3, 21]
45: Ryegrass, Italian plant response rating (0 to 100 scale) [1, 15] | Cocklebur plant response rating (0 to 100 scale) [5, 15] | Plant response rating, Morningglory [7, 20] | Plant response rating, Ragweed [8, 18]
35: Plant response rating, Ryegrass, Italian [1, 14]
30: Plant response rating, Blackgrass [4, 17]
70: Plant response rating, Ryegrass, Italian [1, 17]

CCCc1ncc(C(=O)C2=C(O)CCCC2=O)c(=O)n1CC1CCCO1 (stereo not drawn) [Compound 74]
70: Plant response rating, Cocklebur [5, 20]
5: Plant response rating, Ryegrass, Italian [1, 14]
60: Plant response rating, Corn [6, 17] | Plant response rating, Morningglory [7, 14] | Plant response rating, Morningglory [7, 19] | Plant response rating, Flood, Sedge, Umbrella [13]
100: Plant response rating, Bermudagrass [3, 20] | Bermudagrass plant response rating ([3]; Preemergence, 250 g ai/ha, 0 to 100 scale, 0 no effect, 100 complete control) | Plant response rating, Morningglory [7, 17] | Ragweed plant response rating [8, 23]
40: Plant response rating, Flood, Barnyardgrass [10]
45: Surinam Grass plant response rating (0 to 100 scale) [2, 15] | Plant response rating, Blackgrass [4, 17] | Plant response rating, Cocklebur [5, 19]
85: Plant response rating, Surinam Grass [2, 20] | Cocklebur plant response rating (0 to 100 scale) [5, 15] | Morningglory plant response rating (0 to 100 scale) [7, 15] | Plant response rating, Ragweed [8, 16]
10: Blackgrass plant response rating [4, 23] | Plant response rating, Cocklebur [5, 18] | Plant response rating, Morningglory [7, 18] | Plant response rating, Ragweed [8, 18]
20: Ryegrass, Italian plant response rating (0 to 100 scale) [1, 15] | Plant response rating, Ryegrass, Italian [1, 16] | Plant response rating, Surinam Grass [2, 14] | Plant response rating, Cocklebur [5, 14]
25: Plant response rating, Blackgrass [4, 16]
98: Plant response rating, Bermudagrass [3, 17] | Plant response rating, Bermudagrass [3, 19] | Plant response rating, Ragweed [8, 19] | Plant response rating, Ragweed [8, 20]
80: Plant response rating, Surinam Grass [2, 19] | Bermudagrass plant response rating (0 to 100 scale) [3, 15] | Cocklebur plant response rating [5, 23] | Morningglory plant response rating [7, 23]
30: Plant response rating, Sedge, Umbrella [13]
65: Plant response rating, Surinam Grass [2, 16]
15: Plant response rating, Corn [6, 16]
95: Surinam Grass plant response rating [2, 23] | Plant response rating, Bermudagrass [3, 16] | Plant response rating, Cocklebur [5, 17] | Plant response rating, Morningglory [7, 16] | Plant response rating, Soybean [9, 16] | Plant response rating, Soybean [9, 17]
0: Plant response rating, Ryegrass, Italian [1, 18] | Plant response rating, Ryegrass, Italian [1, 19] | Plant response rating, Ryegrass, Italian [1, 20] | Ryegrass, Italian plant response rating [1, 23] | Plant response rating, Surinam Grass [2, 18] | Plant response rating, Blackgrass [4, 14] | Blackgrass plant response rating (0 to 100 scale) [4, 15] | Plant response rating, Blackgrass [4, 18] | Plant response rating, Blackgrass [4, 19] | Plant response rating, Blackgrass [4, 20] | Plant response rating, Corn [6, 14] | Corn plant response rating (0 to 100 scale) [6, 15] | Plant response rating, Corn [6, 18] | Plant response rating, Corn [6, 19] | Plant response rating, Corn [6, 20] | Corn plant response rating [6, 23] | Plant response rating, Barnyardgrass [10] | Plant response rating, Flood, Ducksalad [11] | Plant response rating, Ducksalad [11] | Plant response rating, Flood, Rice [12] | Plant response rating, Rice [12]
75: Plant response rating, Surinam Grass [2, 17] | Plant response rating, Bermudagrass [3, 14] | Plant response rating, Morningglory [7, 20] | Plant response rating, Ragweed [8, 14] | Ragweed plant response rating (0 to 100 scale) [8, 15] | Plant response rating, Soybean [9, 14] | Soybean plant response rating (0 to 100 scale) [9, 22]
35: Plant response rating, Ryegrass, Italian [1, 17]
90: Plant response rating, Cocklebur [5, 16] | Plant response rating, Ragweed [8, 17]
